Assays:
[1] = acute oral toxicity, graphic method of Litchfield-Wilcoxon, 4 days observation; conditions: mouse, in vivo; oral, 20 ml/kg, both sexes 18-24 g, 4 days observation
Protocol: The analgesic effect of the new compounds according to the invention was determined by the method of Wirth et al. (Wirth, W., Gosswald, R., Horlein. K., Risse, Kl. H., Kreiskott, H.: Arch. Int. Pharmacodyn. 115, 1; (1958)). 0.4 ml of 0.5% acetic acid was administered i.p. to white mice, and the characteristic "writhing" reactions were counted after 5 minutes. […] The results are given in Table I. The toxicity data determined on white mice of both sexes weighing 18-24 g belonging to the strain CFLP are also given. Administration was effected with an oral dose of 20 ml/kg. After treatment the animals were kept under observation for 4 days. The toxicity data (LD50 mg/kg) were determined by the graphic method of Litchfield-Wilcoxon [Litchfield, J.T., Wilcoxon, E. W., J Pharmacol. Exp. Therap. 96, 99; (1949)].

[2] = tested on: white mice; assay: analgesic effect, inhibition of acetic acid "writhing" reactions (Wirth et al.); format: in vivo; conditions: for ED50: Mus musculus, po, read-out: Analgesic effect ED50; for Analgesic effect Therap.index: therapeutic index
Protocol: The analgesic effect of the new compounds according to the invention was determined by the method of Wirth et al. (Wirth, W., Gosswald, R., Horlein. K., Risse, Kl. H., Kreiskott, H.: Arch. Int. Pharmacodyn. 115, 1; (1958)). 0.4 ml of 0.5% acetic acid was administered i.p. to white mice, and the characteristic "writhing" reactions were counted after 5 minutes. The compounds to be tested had been orally administered an hour before the administration of the acetic acid. The activity is expressed as a percentage of the inhibition referred to the data observed on the control group. The results are given in Table I. The toxicity data determined on white mice of both sexes weighing 18-24 g belonging to the strain CFLP are also given. Administration was effected with an oral dose of 20 ml/kg. After treatment the animals were kept under observation for 4 days. The toxicity data (LD50 mg/kg) were determined by the graphic method of Litchfield-Wilcoxon [Litchfield, J.T., Wilcoxon, E. W., J Pharmacol. Exp. Therap. 96, 99; (1949)].

[3] = tested on: white mice; assay: inhibition of maximal electroshock (MES) (Swinyard et al.); format: in vivo; conditions: for ED50: Mus musculus, oral, 1 hour before electroshock 50 Hz, 45 mA, 0.4 sec, total inhibition of tonic extensor convulsion; for Inhibition of MES Th. I.: therapeutic index
Protocol: (§1) The antiepileptic effect was investigated on white mice, after oral administration. The inhibition of maximal electroshock (MES) was determined by the method of Swinyard et al. [Swinyard et al. J. Pharmacol. Exp. Ther. 106, 319-330 (1952)]. White mice weighing 20-25 g were subjected to electric shock through corneal electrodes (Parameters: 50 Hz, 45 mA, 0.4 sec.). The total inhibition of the tonic extensor convulsion was considered as criterion of the anti-convulsive effect. The test-substance had been orally administered one hour before the electroshock. The inhibition of pentetrazole convulsion was determined on white mice by the modified method of Banziger and Hane [Banziger, R., Hane, L.D. Arch. Int. Pharmacodyn. 167, 245-249; (1967)]. I." stands for "therapeutic index."

[4] = tested on: white mice; assay: inhibition of nicotine-lethality (Stone); format: in vivo; conditions: for ED50: Mus musculus, oral, 1 hour before 1.4 mg/kg nicotine
Protocol: The inhibition of nicotine-lethality was determined on white mice by the method of Stone [Stone, C. A., Mecklenburg, K. L., Torchiana, M. L., Arch. Int. Pharmacodyn.

[5] = tested on: white mice; assay: inhibition of motility, Dews apparatus (Borsy); format: in vivo; conditions: for ED50: Mus musculus, oral pretreatment 30 minutes, observation 30 minutes; for Inhibition of motility Th.I.: therapeutic index
Protocol: (§2) The effect on the inhibition of the oriental activity (inhibition of the motility) was investigated on white mice in a Dews apparatus applied with 8 canals by the method of Borsy [Borsy, J., Csanyi, E., Lazar, I., Arc. Int. Pharmacodyn. 124, 1-2 (1960)]. After an oral pretreatment of 30 minutes the number of light-interruptions due to the movements of groups consisting of 3-3 mice was registered. The observation lasted for 30 minutes. The effect of the compounds exerted on the duration of hexobarbital-narcosis was tested by the method of Kaergaard [Kaergaard, N. C., Magnussen, M. P., Kampmann, E., Frey, H. H., Arc. Int. Pharmacodyn. 2, 170; (1967)]. Groups of animals consisting of 6-6 mice were treated.

[6] = tested on: mice; assay: potentiating of hexobarbital-narcosis (Kaergaard); format: in vivo; conditions: for ED50: Mus musculus, iv, 40 mg/kg hexobarbital i.v., positive: sleeping period at least 2.5 times control; for Potentiating of narcosis Th.I.: therapeutic index
Protocol: as §2

[7] = tested on: white mice; assay: inhibition of pentetrazole convulsion (modified Banziger and Hane); format: in vivo; conditions: for ED50: Mus musculus, oral; for Inhibition of pentetrazole convulsion Th. I.: therapeutic index
Protocol: as §1

| SMILES | LD50 at 96 h [1] [mg/kg] | ED50 [2] [mg/kg] | Analgesic effect Therap.index [2] | ED50 [3] [mg/kg] | Inhibition of MES Th. I. [3] | ED50 [4] [mg/kg] | Inhibition of nicotine-lethality Therapeutic index [4] | ED50 [5] [mg/kg] | Inhibition of motility Th.I. [5] | ED50 [6] [mg/kg] | Potentiating of narcosis Th.I. [6] | ED50 [7] [mg/kg] | Inhibition of pentetrazole convulsion Th. I. [7] |
| --- | --- | --- | --- | --- | --- | --- | --- | --- | --- | --- | --- | --- | --- |
| CN(C)CCCOC1(Cc2ccccc2)CC2CCC1(C)C2(C)C (racemic) [Example 1, (±)-2-benzyl-2-(3'-dimethylaminopropoxy)-1,7,7-trimethyl-bicyclo(2,2,1)heptane] | 1600 | 120 | 13.3 | 130 | 12.3 | 38 | 42.1 | 110 | 14.5 | 90 | 17.7 |  |  |
| CC(COC1(Cc2ccccc2)CC2CCC1(C)C2(C)C)CN(C)C (racemic) [Example 2, (±)-2-benzyl-2-(3'-dimethylamino-2'-methylpropoxy)-1,7,7-trimethyl-bicyclo(2,2,1) heptane] | 1700 | 85 | 20.0 | 120 | 14.2 | 20 | 85,0 |  |  | 15 | 113.3 | 88 | 19.3 |
| CN(C)CCCOC1(Cc2ccccc2)CC2CCC1(C)C2(C)C (single isomer, unassigned) [Example 7, D-(-)-2-benzyl-2-(3'-dimethylaminopropoxy)-1,7,7-trimethyl-bicyclo(2,2,1)heptane] | 1200 | 70 | 17.1 | 56 | 21.4 | 25 | 48.0 | 90 | 13.3 |  |  | 66 | 18.2 |
| CCN(CC)CCOC1(Cc2ccccc2)CC2CCC1(C)C2(C)C (single isomer, unassigned) [Example 8, D-(+)-2-benzyl-2-(2'-diethylaminoethoxy)-1,7,7-trimethyl-bicyclo(2,2,1)heptane] | 850 | 45 | 18.9 | 30 | 28.3 | 11 | 77.3 | 60 | 14.2 | 60 | 14.2 | 20 | 42.5 |

From patent US4342762A, “Basic ethers and pharmaceutical compositions containing the same” (Egyt Gyogyszervegyeszeti Gyar, priority 1979, dated 1982)
